Experimental findings from PubChem BioAssay AID720622 (The Scripps Research Institute Molecular Screening Center, 2013) are described below.

The structures appear in SMILES notation.

The first experiment in a line: T. brucei parasite growth inhibition, late-stage follow-up, counter-screen for T. brucei MetRS inhibitor project, absorbance (AID 720622). The following applies: T. brucei bloodstream form 427 growth, AlamarBlue fluorescence, 48 h; run 1. (Counterscreens check selectivity or assay interference.)
Usually IC50 stands for the concentration that inhibits the measured activity by half. `O=C(NCc1nc2ccccc2[nH]1)C1=C[C@H](c2csc3ccccc23)C[C@H](OCCCCO)O1` returned an IC50 of 3.96 µM.
As for `CC(=O)c1ccc(N2CCN(C(=O)CCCn3c(=O)[nH]c4ccc(Br)cc4c3=O)CC2)cc1`, the IC50 was > 10 µM.
Same read-out and setting: in the case of `O=C(NCc1nc2ccccc2[nH]1)C1=C[C@H](C2CC2)C[C@H](OCc2ccc(CO)cc2)O1` it was > 10 µM; in that of `O=C(Nc1ccc(F)c(Cl)c1)C1CC(=O)n2c(nc3ccccc32)N1` (configuration not stated), > 10 µM; in that of `O=C(NCc1nc2ccccc2[nH]1)C1=C[C@H](c2ccc(Br)cc2)C[C@H](OCCCCO)O1`, > 10 µM.
Same read-out and setting: in the case of `CC(=O)c1c[nH]c(C(=O)NCc2cccc(C(F)(F)F)c2)c1` it was > 10 µM; in that of `O=C(NCc1nc2ccccc2[nH]1)C1=C[C@@H](c2ccc3c(c2)OCO3)C[C@@H](OCCCCO)O1`, > 10 µM; in that of `O=C(N/C(=C\c1cccnc1)c1nc2ccccc2[nH]1)c1cccc(Br)c1`, > 10 µM.
The same measure, in the same setting: in the case of `O=C(NNC(=O)c1cc(-c2ccc(Cl)c(Cl)c2)nc2ccccc12)Nc1ccccc1` it was 5.24 µM; in that of `COc1ccc(OCC(O)CNC(=O)Nc2ccc(Cl)cc2)cc1` (configuration not stated), > 10 µM; in that of `COc1cccc(NC(=O)CSc2nnc3c(n2)[nH]c2ccc(C)cc23)c1`, > 10 µM.
For `Clc1ccc(OCCSCc2nc3ccccc3[nH]2)cc1`, the IC50 was > 10 µM.
Same read-out and setting: the same measure for `COc1ccccc1NS(=O)(=O)c1cccc(NC(=O)Nc2ccccc2)c1`: 6.06 µM; for `CC(C)(C)[C@@H]1C=C(C(=O)NCc2nc3ccccc3[nH]2)O[C@H](OCc2ccc(CO)cc2)C1`: > 10 µM; for `O=C(NCc1nc2ccccc2[nH]1)C1=C[C@@H](C2CC2)C[C@@H](OCc2ccc(CO)cc2)O1`: > 10 µM.
`O=C(NCc1nc2ccccc2[nH]1)C1=C[C@@H](c2ccc(Br)cc2)C[C@@H](OCCCCO)O1`: the IC50 was 6.6 µM.
Same read-out and setting: the same measure for `O=C1[C@@H]2Cc3c([nH]c4ccccc34)C(c3cccc([N+](=O)[O-])c3)N2C(=O)CN1CCCO` (some centres not stated): > 10 µM.
Still for that read-out and setting: in the case of `O=C(CC=NOCc1ccc([N+](=O)[O-])cc1)Nc1ccc(Br)cc1` it was > 10 µM; in that of `O=C(CCC(=O)Nc1cccc([N+](=O)[O-])c1)NN=Cc1cccs1`, > 10 µM.
Still for that read-out and setting: the same measure for `CN(Cc1cc(Cl)cc(Cl)c1)[C@H]1C[C@H]2c3[nH]c4ccccc4c3CCN2C(=O)[C@H]1CO`: 1.97 µM; for `O=C(NCc1nc2ccccc2[nH]1)C1=C[C@H](c2ccc3c(c2)OCO3)C[C@H](OCCCCO)O1`: > 10 µM; for `O=C1CC(SCc2nc3ccccc3[nH]2)C(=O)N1c1cccc(Cl)c1` (configuration not stated): > 10 µM.
With `O=C(NCc1nc2ccccc2[nH]1)C1=C[C@H](c2ccc(Br)cc2)C[C@H](OCc2ccc(CO)cc2)O1`, the concentration for half-maximal inhibition (IC50) was 9.73 µM.
Still for that read-out and setting: in the case of `O=C(C[C@H]1C(=O)N(Cc2ccccc2)C[C@@H]1c1ccc(Br)cc1)Nc1ccc(Br)cc1` it was 4.03 µM; in that of `CCO[C@@H]1OC(C(=O)NCc2nc3ccccc3[nH]2)=C[C@H](c2ccc(Br)cc2)[C@H]1CCCO`, > 10 µM; in that of `Oc1c(Cl)cc(Cl)cc1CNc1nc2ccccc2[nH]1`, > 10 µM.
Same read-out and setting: the same measure for `CN1CC(=O)N2C(c3cccc([N+](=O)[O-])c3)c3[nH]c4ccccc4c3C[C@H]2C1=O` (some centres not stated): > 10 µM; for `CC(C)(C)[C@H]1C=C(C(=O)NCc2nc3ccccc3[nH]2)O[C@@H](OCc2ccc(CO)cc2)C1`: > 10 µM; for `C[C@H](O)[C@@H]1C(=O)N2CCc3c([nH]c4ccccc34)[C@@H]2C[C@@H]1N(C)Cc1ccc2c(c1)OCO2`: > 10 µM.
As to `COc1ccccc1-n1c(SCC(=O)Nc2ccc(Cl)cc2)nc(O)c(Cc2ccccc2)c1=O`, the 50% inhibitory concentration (IC50) was > 10 µM.
In the case of `CN(CC(=O)Nc1ccc(Cl)cc1)C(=O)c1ccc(-n2cncn2)c([N+](=O)[O-])c1`, the IC50 is > 10 µM.
On the same count and under the same terms, in the case of `CCOC(=O)N1CCC(Nc2c(Nc3ccc(F)cc3)c(=O)c2=O)CC1` it was 8.72 µM; in that of `Clc1ccc(-c2nnc(SCc3nc4ccccc4[nH]3)o2)c(Cl)c1`, > 10 µM.
Take `O=C(NCc1nc2ccccc2[nH]1)C1=C[C@@H](c2ccc(Br)cc2)C[C@@H](OCc2ccc(CO)cc2)O1`: the IC50 was 4.38 µM.
Still for that read-out and setting: in the case of `COc1ccc2[nH]c3nc(SCC(=O)Nc4ccc5c(c4)OCO5)nnc3c2c1` it was > 10 µM; in that of `O=C(NCCc1nc2ccccc2[nH]1)c1ccc(Cl)c([N+](=O)[O-])c1`, 4.97 µM; in that of `O=C(Cn1cc(C(=O)C(=O)N2CCOCC2)c2ccccc21)Nc1cccc(C(F)(F)F)c1`, 3.53 µM.
Still for that read-out and setting: the same measure for `CC(CC(=O)Nc1cccc(Br)c1)=NNC(=O)c1ccc(O)cc1O`: > 10 µM; for `COc1ccc(CNC(=O)CSc2nnc3c(n2)[nH]c2ccc(F)cc23)cc1`: > 10 µM.
The same measure, in the same setting: in the case of `O=C(NCc1nc2ccccc2[nH]1)C1=C[C@@H](c2csc3ccccc23)C[C@@H](OCCCCO)O1` it was > 10 µM; in that of `O=C(NCc1nc2ccccc2[nH]1)C1=C[C@@H](c2ccccc2)C[C@@H](OCc2ccc(CO)cc2)O1`, > 10 µM.
As to `O=C(NCc1nc2ccccc2[nH]1)C1=C[C@H](c2ccccc2)C[C@H](OCc2ccc(CO)cc2)O1`, the IC50 was > 10 µM.
On the same count and under the same terms, the same measure for `Cc1ccc(NC(=O)CN(C)C(=O)CCSc2ccc(F)cc2)cc1`: > 10 µM.
Same read-out and setting: in the case of `O=C1CC(N(CCc2ccccc2)C(=S)Nc2ccccc2)C(=O)N1c1ccc(Br)cc1` (configuration not stated) it was 1.95 µM; in that of `CCO[C@H]1OC(C(=O)NCc2nc3ccccc3[nH]2)=C[C@@H](c2ccc(Br)cc2)[C@@H]1CCCO`, > 10 µM.
On the same count and under the same terms, in the case of `Brc1cnc2nc(SCc3nc4ccccc4[nH]3)[nH]c2c1` it was > 10 µM; in that of `O=C(CN1CCSC1=NCc1ccccc1)c1ccc(Cl)c(Cl)c1`, > 10 µM; in that of `CC(C)OCCCN1CC(=O)N2C(c3cccc([N+](=O)[O-])c3)c3[nH]c4ccccc4c3C[C@H]2C1=O` (some centres not stated), > 10 µM.
For `Cc1[nH]c2ccc(Br)cc2c(=O)c1CN1CCCCCC1`, the IC50 was > 10 µM.
Consider `CCCCCCCCCC1NC(C(=O)O)Cc2c1[nH]c1ccccc21` (configuration not stated), for which the IC50 was > 10 µM.
On the same count and under the same terms, the same measure for `O=C(CC(=O)Nc1cccc(Cl)c1)NN=Cc1ccccc1`: > 10 µM.
On the same count and under the same terms, in the case of `O=C(NNC(=O)c1ccc(-n2cncn2)c([N+](=O)[O-])c1)c1ccc(Cl)cc1` it was > 10 µM; in that of `O=C(CC=NOCc1ccc([N+](=O)[O-])cc1)Nc1ccc(Cl)cc1`, > 10 µM.
In the case of `O=C(Cn1cnc2ccccc21)Nc1cccc([N+](=O)[O-])c1`, the IC50 is > 10 µM.

The same experiment, now with this note: T. brucei bloodstream form 427 growth, AlamarBlue fluorescence, 48 h; run 2.
As for `CN(Cc1cc(Cl)cc(Cl)c1)[C@H]1C[C@H]2c3[nH]c4ccccc4c3CCN2C(=O)[C@H]1CO`, the IC50 was found to be 2.62 µM.
Same read-out and setting: the same measure for `O=C(Cn1cc(C(=O)C(=O)N2CCOCC2)c2ccccc21)Nc1cccc(C(F)(F)F)c1`: 1.8 µM; for `O=C1CC(N(CCc2ccccc2)C(=S)Nc2ccccc2)C(=O)N1c1ccc(Br)cc1` (configuration not stated): 2.74 µM.
